The source of these data is EP4644392A1, “PYRIDAZINE FUSED ARYL RING COMPOUND AND USE THEREOF” (Chia Tai Tianqing Pharmaceutical Group Co., Ltd., priority 2022, dated 2024).

One series deals with J774A.1 cells. In words: Anti-pyroptosis activity assay in J774A.1 cells (CCK-8 readout, nigericin stimulation). Format: cell-based. The settings on record: Mus musculus, J774.A1, nigericin 10 µM.
In series [1] the test system is IL-1β expression in THP-1 cells. In words: In-vitro THP-1 cell (IL-1β) expression assay (LPS + nigericin, ELISA). It is filed as cell-based. The settings on record: Homo sapiens; for inhibition at 0.001 µM: THP-1, read-out: 1 nM (% inhibition); for inhibition at 0.01 µM: THP-1, read-out: 10 nM (% inhibition); for inhibition at 0.1 µM: THP-1, read-out: 100 nM (% inhibition). The protocol:
THP-1 cells in good growth status were collected into a centrifuge tube, and the cell density was adjusted to 2 × 10^6 cells/mL. The cells were then seeded into a 96-well plate (50 µL/well), and meanwhile, LPS (manufacturer: Sigma; 50 µL/well) was added at a final concentration of 100 ng/mL. The plate was then incubated at 37 °C with 5% CO2 for 3 h. […] The plate was incubated at 37 °C with 5% CO2 for 1 h. Nigericin (manufacturer: Millipore; 50 µL/well) was added at a final concentration of 10 µM, and the plate was incubated at 37 °C with 5% CO2 for 1 h and then centrifuged at 1500 rpm for 3 min. The supernatant was collected and stored at -20 °C for subsequent detection of human IL-1β.
Human IL-1β detection (manufacturer: R&D): Human IL-1β Capture Antibody (coating antibody) was added to a high-binding 96-well plate at a final concentration of 4 µg/mL (100 µL/well), and the plate was incubated at 4 °C overnight. The supernatant was discarded, and the plate was washed with PBST (300 µL/well, 3 times in total). A 1% BSA-PBS blocking buffer was added (200 µL/well), and the plate was blocked at 25 °C for 2 h. The supernatant was discarded, and the plate was washed with PBST (300 µL/well, 3 times in total). A standard curve sample and the diluted samples to be tested were then added (100 µL/well), and the plate was incubated at 25 °C for 2 h. The supernatant was discarded, and the plate was washed with PBST (300 µL/well, 3 times total). Human IL-1β Detection Antibody (detection secondary antibody) was added at a final concentration of 200 ng/mL (100 µL/well), and the plate was incubated at 25 °C for 2 h. The supernatant was discarded, and the plate was washed with PBST (300 µL/well, 3 times in total). Streptavidin-HRP (detection tertiary antibody) was then added (100 µL/well), and the plate was incubated at 25 °C for 20 min. The supernatant was discarded, and the plate was washed with PBST (300 µL/well, 3 times in total). TMB was added for color development (100 µL/well), and the plate was incubated at 25 °C for 5 min. Finally, 1 M H2SO4 was added to terminate the reaction (50 µL/well). Absorbance values were measured at 450/570 nm using a PerkinElmer Envision microplate reader. Data were analyzed using a four-parameter model to calculate the IL-1β expression amount and inhibition rate. […]

A short description of series [2]: In-vitro stability in liver microsomes. Conditions: human liver microsomes 0.5 mg/mL, NADPH, 37 °C, 1 h. A general note: Liver microsomes are a subcellular fraction often used to study metabolism.
For series [3] the following is noted: microsomes, 1 h.

Each structure is given as a SMILES string. Like-named read-outs stand apart in the source and are kept apart here.

The compound `CN1CCC[C@@H](Nc2nnc(-c3ccc(C(F)(F)F)cc3O)n3cccc23)C1` [Example 1] yielded an EC50 in the series with J774A.1 cells of under 100 nM. Also, in series [1], the inhibition at 0.001 µM is at least 50% and the inhibition at 0.01 µM is at least 50%. Also, the “Human Remaining amount at 60 min (%)” value in series [2] stood at 95.57%.
Take `CN1CCC[C@@H](Nc2nnc(-c3ccc(C(F)(F)F)cc3O)c3cc4sccc4n23)C1` [Example 2]: the “Human Remaining amount at 60 min (%)” value in series [3] turned out to be 80.23%. This compound had an EC50 in the series with J774A.1 cells of under 100 nM. Further, in series [1], the inhibition at 0.001 µM was 10 to 50%, the inhibition at 0.01 µM is 10 to 50% and the inhibition at 0.1 µM is at least 50%.
With `CN1CCC[C@@H](Nc2nnc(-c3ccc(C(F)(F)F)cc3O)n3c2cc2sccc23)C1` [Example 3], the EC50 in the series on J774A.1 cells is 100 to 1000 nM. In addition, in series [1], the inhibition at 0.001 µM is 10 to 50%, the inhibition at 0.01 µM lay in the range of 10 to 50% and the inhibition at 0.1 µM is at least 50%.
Compound `CN1CCC[C@@H](Nc2nnc(-c3ccc(C(F)(F)F)cc3O)c3c4c(cn23)CCC4)C1` [Example 4] registered a half-maximal effective concentration (EC50) in the series on J774A.1 cells of 100 to 1000 nM. In series [1], the inhibition at 0.001 µM fell in the range of 10 to 50%, the inhibition at 0.01 µM was in the range of 10 to 50% and the inhibition at 0.1 µM is at least 50%.
On to `CN1CCC[C@@H](Nc2nnc(-c3ccc(C(F)(F)F)cc3O)n3cc4c(c23)CCC4)C1` [Example 5], for which the EC50 in the series with J774A.1 cells is under 100 nM. Besides, in series [1], the inhibition at 0.001 µM lay in the range of 10 to 50%, the inhibition at 0.01 µM is at least 50% and the inhibition at 0.1 µM was at least 50%. In addition, the “Human Remaining amount at 60 min (%)” value in series [2] was 72.41%.
On to `CN1CCC[C@@H](Nc2nnc(-c3ccc(C(F)(F)F)cc3O)c3cc4c(n23)CCC4)C1` [Example 6], for which the EC50 with J774A.1 cells fell in the range of 100 to 1000 nM. Moreover, in series [1], the inhibition at 0.001 µM lay within 10 to 50%, the inhibition at 0.01 µM is 10 to 50% and the inhibition at 0.1 µM is at least 50%.
For the compound `CN1CCC[C@@H](Nc2nnc(-c3ccc(C(F)(F)F)cc3O)n3c4c(cc23)CCC4)C1` [Example 7], the “Human Remaining amount at 60 min (%)” value in series [2] is reported as 90.01%.
The same measure, in the same setting: the value for `OCCN1CCC[C@@H](Nc2nnc(-c3ccc(C(F)(F)F)cc3O)n3cc4c(c23)CCC4)C1` [Example 8] was 79.13%.
In the series with J774A.1 cells, `C#Cc1ccc(-c2nnc(N[C@@H]3CCCN(C)C3)c3cccn23)c(O)c1` [Example 9] gave an EC50 of under 100 nM. For the same compound, in series [1], the inhibition at 0.001 µM was at least 50%, the inhibition at 0.01 µM is at least 50% and the inhibition at 0.1 µM was at least 50%. The “Human Remaining amount at 60 min (%)” value in series [2] is on record as 98.65%.
Regarding `CC#Cc1ccc(-c2nnc(N[C@@H]3CCCN(C)C3)c3cccn23)c(O)c1` [Example 10], the “Human Remaining amount at 60 min (%)” value in series [2] was determined as 99.00%.
For `C#Cc1ccc(-c2nnc(N[C@@H]3CCCN(C)C3)c3c4c(cn23)CCC4)c(O)c1` [Example 11], the “Human Remaining amount at 60 min (%)” value in series [2] is recorded as 75.56%.
Regarding `C=Cc1ccc(-c2nnc(N[C@@H]3CCCN(C)C3)c3cccn23)c(O)c1` [Example 12], in series [1], the inhibition at 0.001 µM is at least 50%, the inhibition at 0.01 µM is at least 50% and the inhibition at 0.1 µM is at least 50%. Moreover, the “Human Remaining amount at 60 min (%)” value in series [2] is given as 100.53%.
In the series with J774A.1 cells, `CN1CCC[C@@H](Nc2nnc(-c3ccc(Cl)cc3O)n3cccc23)C1` [Example 13] returned an EC50 of under 100 nM.
Turning to `OCCN1CCC[C@@H](Nc2nnc(-c3ccc(C(F)(F)F)cc3O)c3c4c(cn23)CCC4)C1` [Example 14], the “Human Remaining amount at 60 min (%)” value in series [2] is given as 93.13%.
Consider `C[C@]1(O)C[C@@H](Nc2nnc(-c3ccc(C(F)(F)F)cc3O)n3cccc23)C1` [Example 15], for which the EC50 in the series on J774A.1 cells was in the range of 100 to 1000 nM.
On to `Oc1cc(C(F)(F)F)ccc1-c1nnc(N[C@@H]2COC[C@H]2O)c2c3c(cn12)CCC3` [Example 16], for which the EC50 with J774A.1 cells was 100 to 1000 nM.
Still for that read-out and setting: for `Oc1cc(C(F)(F)F)ccc1-c1nnc(N[C@@H]2COC[C@@H]2O)c2c3c(cn12)CCC3` [Example 17] the value was 100 to 1000 nM; for `Oc1cc(Cl)ccc1-c1nnc(N[C@@H]2COC[C@H]2O)c2c3c(cn12)CCC3` [Example 18], 100 to 1000 nM.
Consider `Oc1cc(C(F)(F)F)ccc1-c1nnc(N[C@@H]2CCCC[C@H]2O)c2c3c(cn12)CCC3` [Example 21], for which the EC50 with J774A.1 cells was under 100 nM.
`CS(=O)(=O)N1CCC[C@@H](Nc2nnc(-c3ccc(C(F)(F)F)cc3O)n3cccc23)C1` [Example 22] yielded an EC50 in the series on J774A.1 cells of 100 to 1000 nM.
Turning to `NS(=O)(=O)N1CCC[C@@H](Nc2nnc(-c3ccc(C(F)(F)F)cc3O)n3cccc23)C1` [Example 23], the EC50 with J774A.1 cells is under 100 nM. Besides, in series [2], the “Human Remaining amount at 60 min (%)” value worked out at 93.93%.
The compound `O=S(=O)(C1CC1)N1CCC[C@@H](Nc2nnc(-c3ccc(C(F)(F)F)cc3O)n3cccc23)C1` [Example 24] came in with an EC50 with J774A.1 cells of 100 to 1000 nM.
Regarding `CS(=N)(=O)N1CCC[C@@H](Nc2nnc(-c3ccc(C(F)(F)F)cc3O)n3cccc23)C1` (stereo partly shown) [Example 25], the EC50 with J774A.1 cells fell in the range of 100 to 1000 nM. Further, in series [2], the “Human Remaining amount at 60 min (%)” value is given as 98.06%.

Usually EC50 stands for the concentration at which the effect is half-maximal. Read a high EC50 as lower potency in that assay. As a reminder, the inhibition is the percentage by which the read-out fell short of the control.
